Results published in article PMC8317927 (Journal of Enzyme Inhibition and Medicinal Chemistry, 2021).
≈ marks a conversion by molar mass, not a printed value. Where “and” joins values, the source holds several entries; their conditions need not be identical. Equal values may be shown once. Read-outs that look alike come from different tables or passages of the source.

Assays:
[1] = biological target: T1, bovine testicular HAase (Bos taurus, UniProt Q2YDK3); assay: Hyaluronidase inhibition assay; type: biochemical; conditions: for IC50 on HAase enzyme activity: nonlinear regression of inhibition rates at five concentrations (1-40 µg/mL); for inhibition at 40 µg/mL: read-out: Inhibition (%) of HAase enzyme activity
T1 sequence (Q2YDK3 36-553): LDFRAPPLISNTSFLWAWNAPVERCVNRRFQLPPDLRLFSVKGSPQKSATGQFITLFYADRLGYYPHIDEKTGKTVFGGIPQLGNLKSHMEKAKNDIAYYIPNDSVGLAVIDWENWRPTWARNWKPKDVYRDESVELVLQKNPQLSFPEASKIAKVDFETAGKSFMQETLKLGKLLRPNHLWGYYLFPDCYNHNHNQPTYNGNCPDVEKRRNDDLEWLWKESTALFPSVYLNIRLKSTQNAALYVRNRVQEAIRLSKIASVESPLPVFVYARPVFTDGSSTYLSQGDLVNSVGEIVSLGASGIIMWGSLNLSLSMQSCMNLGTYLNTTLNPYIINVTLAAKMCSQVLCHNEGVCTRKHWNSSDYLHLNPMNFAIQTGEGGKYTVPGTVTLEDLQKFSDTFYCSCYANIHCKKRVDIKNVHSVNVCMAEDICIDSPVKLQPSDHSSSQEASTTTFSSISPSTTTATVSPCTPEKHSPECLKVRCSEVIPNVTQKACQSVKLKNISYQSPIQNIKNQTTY
Protocol: Inhibitory effect on bovine testicular HAase activity was evaluated using a reported method with minor modifications. It is noted that long HA chains and HAase may form of non-active complexes at low ionic condition, which can impede the catalytic activity of HAase and disrupt the HAase inhibition assay. This interference can be avoided by adding a positively charged protein to balance the ionic strength of the reaction system and recover the activity of HAase[24]. […] […] Then hyaluronic acid (HA; 100 μL) was added to the pre-incubated mixture at 37 °C for 45 min. […] The absorbance was then measured at a wavelength of 600 nm using a microplate reader (SpectraMax M2, Molecular Devices Corp., operated by SoftmaxPro v.4.6 software, Sunnyvale, CA, USA). Each sample was tested at least in three replicates. […] The IC50 value of each sample was determined by analysing its inhibition rates at different concentrations with a nonlinear regression algorithm by GraphPad Prism.

[2] = Cell viability, XTT assay; type: cell-based; conditions: human, HaCaT keratinocyte cells
Protocol: Human keratinocytes (HaCaT) cells were purchased from Sigma Aldrich Co. (St. Louis, MO, USA) and cultured in Dulbecco’s modified Eagle’s medium (DMEM; Life Technologies; Gaithersburg, MD, USA) with 10% fetal bovine serum (Gibico; Grand Island, NY, USA) at 37 °C in the presence of 5% CO2. The cell viability of HaCaT treated with or without OA and its derivatives was measured by the XTT assay according to manufacturer’s instructions (XTT Cell proliferation Kit II; Roche, USA). Briefly, HaCaT cells were seeded in 96-well plates at 5 × 10^3 cells per well and allowed to attach for 12 h. Then OA and its derivatives (100 µL; 10 µg/mL) were incubated with cells for 24 h, followed by adding the XTT reagent (50 µL; 0.3 mg/mL) in each well and incubated for 4 h. The absorbance of each well was measured at wavelengths of 450 nm using a SpectraMax M2 plate reader (Molecular Devices; Sunnyvale, CA, USA).

[3] = tested on: HAase; assay: Lineweaver-Burk plot, enzyme kinetics of HAase inhibition; type: biochemical, bovine; conditions: four concentrations (5–40 µg/mL); HA 0.125–2.0 µM (6c), 0.2–1.0 µM (6g)
Protocol: The inhibition type of test compounds was determined by the Lineweaver-Burk plots.

[4] = tested on: HaCaT cells; assay: Cellular reactive oxygen species (ROS), H2O2-induced, DCFDA probe; type: cell-based, human; conditions: 10 µg/mL for 24 h, then H2O2 200 µM for 1 h
Protocol: HaCaT cells were seeded in 96-well plates at 6 × 10^3 cells per well and allowed to attach for 12 h. Then the cells were incubated with test samples (10 µg/mL) for 24 h. Next, the cell culture medium was removed and fresh phosphate buffer solution (PBS; 100 µL) containing a fluorescent probe 2′,7′-dichlorofluorescin diacetate (DCFDA; 20 µM) was added to the cells and incubated for 20 min. Then the cells were treated with H2O2 (100 µL; 200 µM) for 1 h followed by measuring the fluorescence intensity of each well with excitation and emission wavelengths of 485 and 525 nm, respectively, using a SpectraMax M2 plate reader.

Inhibition (%) of HAase enzyme activity ([1]; at 40 μg/mL)	IC50 on HAase enzyme activity [1] [µg/mL]	SMILES	further results
93.5 ± 3.9%	11.62 (≈ 20.9 µM)	Cc1cc(C)c2[nH]c3c(c2c1)CC1(C)C(CCC2(C)C1CC=C1C4CC(C)(C)CCC4(C(=O)O)CCC12C)C3(C)C (stereo not shown) [Compound 6d]	
86.3 ± 3.3%	9.97 (≈ 17.7 µM)	CC1(C)CCC2(C(=O)O)CCC3(C)C(=CCC4C5(C)Cc6c([nH]c7c(F)cc(F)cc67)C(C)(C)C5CCC43C)C2C1 (stereo not shown) [Compound 6c]	Inhibition type (Lineweaver-Burk plot) [3]: mixed type of competitive and non-competitive inhibitions; decrease of ROS level vs H2O2-exposed cells [4]: 23.6%
83.7 ± 3.3%	11.60 (≈ 19.1 µM)	CC1(C)CCC2(C(=O)O)CCC3(C)C(=CCC4C5(C)Cc6c([nH]c7ccc(Br)cc67)C(C)(C)C5CCC43C)C2C1 (stereo not shown) [Compound 6e]	
98.1 ± 0.4%	9.57 (≈ 17 µM)	CC1(C)CCC2(C(=O)O)CCC3(C)C(=CCC4C5(C)Cc6c([nH]c7c(Cl)cccc67)C(C)(C)C5CCC43C)C2C1 (stereo not shown) [Compound 6g]	Inhibition type (Lineweaver-Burk plot) [3]: mixed type of competitive and non-competitive inhibitions
100.9 ± 4.3%	16.23 (≈ 28.3 µM)	CC1(C)CCC2(C(=O)O)CCC3(C)C(=CCC4C5(C)Cc6c([nH]c7c([N+](=O)[O-])cccc67)C(C)(C)C5CCC43C)C2C1 (stereo not shown) [Compound 6a]	
100.6 ± 3.6%	10.14 (≈ 16.7 µM)	CC1(C)CCC2(C(=O)O)CCC3(C)C(=CCC4C5(C)Cc6c([nH]c7c(Br)cccc67)C(C)(C)C5CCC43C)C2C1 (stereo not shown) [Compound 6f]	
100.2% and 100.4 ± 2.4%	12.58 (≈ 23 µM)	CC1(C)CCC2(C(=O)O)CCC3(C)C(=CCC4C5(C)Cc6c([nH]c7c(F)cccc67)C(C)(C)C5CCC43C)C2C1 (stereo not shown) [Compound 6b]	

Further lines, the molecule ahead of its results:

SMILES	Inhibition (%) of HAase enzyme activity ([1]; at 40 μg/mL)	IC50 on HAase enzyme activity [1] [µg/mL]	further results
CC1(C)CC[C@]2(C(=O)O)CC[C@]3(C)C(=CC[C@@H]4[C@@]5(C)CC[C@H](O)C(C)(C)[C@@H]5CC[C@]43C)[C@@H]2C1 [Compound 1, Oleanolic acid, reference compound]			inhibition at 40 µg/mL [1]: 59.3 ± 2.4%; viability at 24 h, 10 µg/mL [2]: 96.7%
CC1(C)CCC23CC[C@]4(C)C(OC2=O)(C(F)CC2[C@@]5(C)CCC(=O)C(C)(C)C5CC[C@]24C)C3C1 (stereo partly shown) [Compound 4]			inhibition at 40 µg/mL ([1]; at 40 μg/mL): 37.3 ± 1.4%
CC1(C)CCC23CC[C@]4(C)C(OC2=O)(C(F)CC2[C@@]5(C)CC[C@H](O)C(C)(C)C5CC[C@]24C)C3C1 (stereo partly shown) [Compound 3]			inhibition at 40 µg/mL ([1]; at 40 μg/mL): 12.7 ± 3.9%
CC1(C)CC[C@]2(C(=O)O)CC[C@]3(C)C(=CCC4[C@@]5(C)CCC(=O)C(C)(C)C5CC[C@]43C)C2C1 (stereo partly shown) [Compound 2]			inhibition at 40 µg/mL [1]: 15.9 ± 4.3%
